# Where “and” joins values, the source holds several entries; their conditions need not be identical. Identical values can stand only once. Toxic doses and inconclusive results are not listed.
# Tested on: P388 leukemia ip, CD2F1 mice, survival T/C
# Assay: NCI In Vivo Anticancer Drug Screen. Data for tumor model P388 Leukemia (intraperitoneal) in CD2F1 (CDF1) mice
# Conditions: endpoint: median survival time, higher = longer survival
# Method in brief: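 Mice carrying the transplanted tumor received test compound or vehicle. Survival was recorded in each group, and the value is the treated-group measurement divided by that of the vehicle-treated control group.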
# [1] = dose: 50.0 mg/kg/injection, schedule: Q01DX005 (ip), vehicle: saline
# [2] = dose: 50.0 mg/kg/injection, schedule: Q01DX009 (ip), vehicle: saline with Tween-80
# [3] = dose: 100.0 mg/kg/injection, schedule: Q01DX009 (ip), vehicle: saline with Tween-80
# [4] = dose: 200.0 mg/kg/injection, schedule: Q01DX009 (ip), vehicle: saline with Tween-80
# [5] = dose: 120.0 mg/kg/injection, schedule: Q01DX005 (ip), vehicle: saline with Tween-80
# [6] = dose: 240.0 mg/kg/injection, schedule: Q01DX005 (ip), vehicle: saline with Tween-80
# [7] = dose: 60.0 mg/kg/injection, schedule: Q01DX005 (ip), vehicle: Klucel (hydroxypropylcellulose) (HPC)
# [8] = dose: 50.0 mg/kg/injection, schedule: Q04DX003 (ip), vehicle: saline
# [9] = dose: 100.0 mg/kg/injection, schedule: Q04DX003 (ip), vehicle: saline
# [10] = dose: 100.0 mg/kg/injection, schedule: Q04DX003 (ip), vehicle: saline with Tween-80
# [11] = dose: 50.0 mg/kg/injection, schedule: Q01DX005 (ip), vehicle: Klucel (hydroxypropylcellulose) (HPC)
# [12] = dose: 100.0 mg/kg/injection, schedule: Q01DX005 (ip), vehicle: Klucel (hydroxypropylcellulose) (HPC)
# [13] = dose: 25.0 mg/kg/injection, schedule: Q01DX009 (ip), vehicle: saline with Tween-80
# [14] = dose: 12.5 mg/kg/injection, schedule: Q01DX009 (ip), vehicle: saline
# [15] = dose: 25.0 mg/kg/injection, schedule: Q01DX009 (ip), vehicle: saline
# [16] = dose: 50.0 mg/kg/injection, schedule: Q01DX009 (ip), vehicle: saline
# [17] = dose: 12.5 mg/kg/injection, schedule: Q01DX009 (ip), vehicle: saline with Tween-80
compound,measurement,setting,value
NC(=N\N=C\C(O)C(O)C(O)C(O)C(=O)O)/C(N)=N/N=C/C(O)C(O)C(O)C(O)C(=O)O (centres undefined),T/C,[1],101 % of control
same,T/C,"dose: 100.0 mg/kg/injection, schedule: Q01DX005 (ip), vehicle: saline",104 % of control
same,T/C,"dose: 200.0 mg/kg/injection, schedule: Q01DX005 (ip), vehicle: saline",101 % of control
O=c1[nH]c2c(ccc3c[n+]([O-])ccc32)c2c1CCC2,T/C,[2],88 % of control
same,T/C,[3],100 % of control
same,T/C,[4],108 % of control
CC(=O)/C(C(=N)C(=O)c1ccccc1)=C(\C)O,T/C,"dose: 60.0 mg/kg/injection, schedule: Q01DX005 (ip), vehicle: saline with Tween-80",96 % of control
same,T/C,[5],98 % of control
same,T/C,[6],99 % of control
N#CC(C#N)=CNCC1CC1,T/C,"dose: 15.0 mg/kg/injection, schedule: Q01DX005 (ip), vehicle: Klucel (hydroxypropylcellulose) (HPC)",102 % of control
same,T/C,"dose: 30.0 mg/kg/injection, schedule: Q01DX005 (ip), vehicle: Klucel (hydroxypropylcellulose) (HPC)",100 % of control
same,T/C,[7],98 % of control and 99 % of control
CCS/C(N)=C(\C#N)C(SCC)(SCC)SCC,T/C,[8],107 % of control
same,T/C,[9],106 % of control
CN(C)C(=S)NCc1ccccc1,T/C,[10],100 % of control
same,T/C,"dose: 200.0 mg/kg/injection, schedule: Q04DX003 (ip), vehicle: saline with Tween-80",100 % of control
CCC[C@@H]1[C@@H](CCC)N1C(=N)OCC,T/C,"dose: 12.5 mg/kg/injection, schedule: Q01DX005 (ip), vehicle: suspension in saline",99 % of control
same,T/C,"dose: 25.0 mg/kg/injection, schedule: Q01DX005 (ip), vehicle: suspension in saline",106 % of control
same,T/C,[1],103 % of control
same,T/C,"dose: 50.0 mg/kg/injection, schedule: Q01DX005 (ip), vehicle: suspension in saline",106 % of control
COc1ccc(CC(=O)Nc2ccc(OC)c(OC)c2)cc1OC,T/C,"dose: 25.0 mg/kg/injection, schedule: Q01DX009 (ip), vehicle: other",92 % of control
same,T/C,"dose: 50.0 mg/kg/injection, schedule: Q01DX009 (ip), vehicle: other",91 % of control
same,T/C,"dose: 100.0 mg/kg/injection, schedule: Q01DX009 (ip), vehicle: other",95 % of control
same,T/C,"dose: 200.0 mg/kg/injection, schedule: Q01DX009 (ip), vehicle: other",87 % of control
same,T/C,"dose: 400.0 mg/kg/injection, schedule: Q01DX009 (ip), vehicle: other",92 % of control
O=c1[nH]nnc2nc(N3CCOCC3)sc12,T/C,"dose: 100.0 mg/kg/injection, schedule: Q01DX001 (ip), vehicle: saline with Tween-80",103 % of control and 95 % of control
same,T/C,"dose: 200.0 mg/kg/injection, schedule: Q01DX001 (ip), vehicle: saline with Tween-80",102 % of control and 104 % of control
same,T/C,"dose: 300.0 mg/kg/injection, schedule: Q01DX001 (ip), vehicle: saline with Tween-80",100 % of control
CC1(C)N=C(N)N=C(N)N1c1ccc(OCCNC(=O)Nc2ccc(S(=O)(=O)F)cc2)c(Cl)c1,T/C,[8],120 % of control
Cn1c(=S)sc2ccc(S(=O)(=O)C(F)F)cc21,T/C,"dose: 25.0 mg/kg/injection, schedule: Q01DX009 (ip), vehicle: Klucel (hydroxypropylcellulose) (HPC)",103 % of control
same,T/C,"dose: 50.0 mg/kg/injection, schedule: Q01DX009 (ip), vehicle: Klucel (hydroxypropylcellulose) (HPC)",112 % of control
same,T/C,"dose: 100.0 mg/kg/injection, schedule: Q01DX009 (ip), vehicle: Klucel (hydroxypropylcellulose) (HPC)",107 % of control
same,T/C,"dose: 200.0 mg/kg/injection, schedule: Q01DX009 (ip), vehicle: Klucel (hydroxypropylcellulose) (HPC)",108 % of control
CS(=O)(=O)C(CCC(=O)c1cccs1)C(=O)c1ccccc1 (centres undefined),T/C,[11],89 % of control
same,T/C,[12],91 % of control
same,T/C,"dose: 200.0 mg/kg/injection, schedule: Q01DX005 (ip), vehicle: Klucel (hydroxypropylcellulose) (HPC)",89 % of control
N#Cc1ncnc2nc[nH]c12,T/C,[11],101 % of control
same,T/C,[12],107 % of control
CC(=S)SC1(C)SC(C)(SC(C)=S)S1 (centres undefined),T/C,[13],91 % of control
same,T/C,[2],94 % of control
same,T/C,[3],94 % of control
CCOc1nc(N)nc(C)c1N=Nc1ccc(Br)cc1,T/C,"dose: 60.0 mg/kg/injection, schedule: Q01DX005 (ip), vehicle: Klucel + Tween-80",100 % of control
same,T/C,"dose: 120.0 mg/kg/injection, schedule: Q01DX005 (ip), vehicle: Klucel + Tween-80",104 % of control
same,T/C,"dose: 240.0 mg/kg/injection, schedule: Q01DX005 (ip), vehicle: Klucel + Tween-80",99 % of control
O=C1CS/C(=N/N=C/c2nc3ccccc3c(=O)n2-c2ccc(Cl)cc2)N1c1ccccc1,T/C,"dose: 200.0 mg/kg/injection, schedule: Q01DX005 (ip), vehicle: saline with Tween-80",88 % of control
CCN(CC)CCOC(=O)Nc1c(Cl)cccc1Cl,T/C,"dose: 25.0 mg/kg/injection, schedule: Q01DX005 (ip), vehicle: Klucel (hydroxypropylcellulose) (HPC)",100 % of control
same,T/C,[11],107 % of control
same,T/C,[7],100 % of control
same,T/C,[12],100 % of control
Cn1c2cc3ccccc3cc2nc2cc3c(cc21)c(Cl)c(=O)c1ccccc13,T/C,[2],109 % of control
same,T/C,[3],99 % of control
same,T/C,[4],100 % of control
CCSSC1(C)C(=O)N2CCCC2C(=O)N1C (centres undefined),T/C,"dose: 25.0 mg/kg/injection, schedule: Q04DX003 (ip), vehicle: saline",109 % of control
same,T/C,[8],103 % of control
same,T/C,[9],104 % of control
O=c1cccc(C(Cl)(Cl)Cl)o1,T/C,"dose: 30.0 mg/kg/injection, schedule: Q01DX005 (ip), vehicle: saline + Tween-80 + alcohol",105 % of control
same,T/C,"dose: 60.0 mg/kg/injection, schedule: Q01DX005 (ip), vehicle: saline + Tween-80 + alcohol",104 % of control and 105 % of control
same,T/C,"dose: 120.0 mg/kg/injection, schedule: Q01DX005 (ip), vehicle: saline + Tween-80 + alcohol",105 % of control and 97 % of control
CCN(CC)Cc1cc(Nc2cc(Cl)c3ccc(N(C)C)cc3n2)ccc1O,T/C,[14],110 % of control
same,T/C,[15],110 % of control
same,T/C,[16],109 % of control and 110 % of control
O=[N+]([O-])c1c(Br)sc(Br)c1[N+](=O)[O-],T/C,[17],104 % of control
same,T/C,[13],95 % of control
same,T/C,[2],95 % of control
Nc1nccc(C(=O)c2ccccc2O)n1,T/C,[16],98 % of control
same,T/C,"dose: 100.0 mg/kg/injection, schedule: Q01DX009 (ip), vehicle: saline",95 % of control
same,T/C,"dose: 200.0 mg/kg/injection, schedule: Q01DX009 (ip), vehicle: saline",99 % of control
CC(=Nc1ccccc1)c1ccc2ccccc2c1,T/C,[3],95 % of control
same,T/C,[4],90 % of control
same,T/C,"dose: 400.0 mg/kg/injection, schedule: Q01DX009 (ip), vehicle: saline with Tween-80",90 % of control
CNC(=O)OCc1c(COC(=O)NC)c(C)n(-c2ccc(Cl)cc2)c1C,T/C,[14],160 % of control
same,T/C,[15],166 % of control
Cc1c(-c2ccccc2)n(O)c(-c2ccccc2Cl)[n+]1[O-],T/C,[2],94 % of control
same,T/C,[3],98 % of control
same,T/C,[4],100 % of control
O=C1C=C(O/C=C/C(C(F)(F)F)C(F)(F)F)C(=O)c2ccccc21,T/C,[2],115 % of control
same,T/C,"dose: 50.0 mg/kg/injection, schedule: Q04DX003 (ip), vehicle: saline with Tween-80",91 % of control
same,T/C,[10],95 % of control
CCCCN(CCCC)CCC(O)c1cc(-c2ccc(C(F)(F)F)cc2)nc(C(F)(F)F)c1 (centres undefined),T/C,"dose: 6.25 mg/kg/injection, schedule: Q01DX009 (ip), vehicle: saline with Tween-80",89 % of control
same,T/C,[17],94 % of control
same,T/C,[13],110 % of control
CCOC(=O)C1=C(N)N(S(=O)(=O)c2ccc(C)cc2)CCC(C(=O)OC)=C1,T/C,[5],119 % of control
same,T/C,[6],108 % of control
CC(=O)O[C@@H]1C[C@@](C)(C[C@H]2COC(=O)C2)[C@@H]2CC(=O)O[C@@H]3C[C@H]4C(C)=C[C@@H](O)C(=O)[C@]4(C)[C@@H]1[C@@]32C,T/C,"dose: 1.5 mg/kg/injection, schedule: Q01DX009 (ip), vehicle: Klucel (hydroxypropylcellulose) (HPC)",99 % of control
same,T/C,"dose: 3.0 mg/kg/injection, schedule: Q01DX009 (ip), vehicle: Klucel (hydroxypropylcellulose) (HPC)",92 % of control
same,T/C,"dose: 6.0 mg/kg/injection, schedule: Q01DX009 (ip), vehicle: Klucel (hydroxypropylcellulose) (HPC)",108 % of control
same,T/C,"dose: 12.0 mg/kg/injection, schedule: Q01DX009 (ip), vehicle: Klucel (hydroxypropylcellulose) (HPC)",91 % of control
C=C(C)C(=NC)NC(C)(C)C,T/C,[11],100 % of control
same,T/C,[12],102 % of control
